Results on 18 molecules are retold here after US9018214B2, “Bicyclic heterocycle compounds and their uses in therapy” (Astex Therapeutics Limited, priority 2011, dated 2015).

Structures are written as SMILES. pEC50, pIC50: −log10 of the molar value. Structures can show the parent of a compound that is named as a salt. Where two headings read alike, the source gives them in different places.

As a reminder, the pEC50 is the negative decadic logarithm of the EC50, by convention in mol/L. Usually pIC50 stands for the IC50 on a negative log10 scale, so that one unit is a factor of ten.

Assay [1] deals with EVSA-T (human breast carcinoma). As to the kind of experiment: Anti-proliferative activity, Alamar Blue assay, EVSA-T. The assay is classed as cell-based. Conditions: Homo sapiens, EVSA-T, 72 h.
Assay [2] deals with BIR3 domain of human cIAP-1 (residues 267-363) (Homo sapiens (Human), UniProt Q13490). As to the kind of experiment: cIAP-1 in vitro competitive displacement binding assay (fluorescence polarization; Probe A AVPIK(5&6FAM)-amide or Probe B AbuRPFK(5&6FAM)-amide).
Setting [3] is: 3 h, read-out: IC50 or PI cIAP1: PI.
Where [4] appears, read: Probe B AbuRPFK(5&6FAM)-amide, read-out: IC50 or PI cIAP1: IC50.
The mark [5] stands for this setting: 3 h, Probe B, @ 0.012 μM, read-out: IC50 or PI cIAP1: PI.

Consider `COC[C@H]1CN[C@H](C)CN1CC(=O)N1CC(C)(C)c2cnc(Cl)cc21` [Example 62, 1-(6-Chloro-3,3-dimethyl-2,3-dihydro-pyrrolo[3,2-c]pyridin-1-yl)-2-((2R,5R)-2-methoxy-methyl-5-methyl-piperazin-1-yl)-ethanone hydrochloride salt], for which, in assay [1] (read-out: EVSA-T prolif (EC50)), the pEC50 was 5.42. As for `COC[C@H]1CN[C@H](C)CN1CC(=O)N1CC(C)(C)c2ccc(Cl)cc21` [Example 44, 1-(6-Chloro-3,3-dimethyl-2,3-dihydro-indol-1-yl)-2-((2R,5R)-2-methoxymethyl-5-methyl-piperazin-1-yl)-ethanone hydrochloride salt], in assay [1] (read-out: EVSA-T prolif (EC50)), the pEC50 is 5.18. With `CC(C)CC(F)(F)c1cnc2c(c1)N(C(=O)CN1C[C@@H](C)NC[C@@H]1CN1CCCC1=O)CC2(C)C` [Example 216, 1-{[(2R,5R)-1-{2-[6-(1,1-Difluoro-3-methylbutyl)-3,3-dimethyl-1H,2H,3H-pyrrolo[3,2-b]pyridin-1-yl]-2-oxoethyl}-5-methylpiperazin-2-yl]methyl}pyrrolidin-2-one dihydrochloride], the pEC50 in assay [1] (read-out: EVSA-T prolif (EC50)) is 7.29. Also, in assay [2] (setting [3]), the inhibition at […] worked out at 68%. Regarding `C[C@@H]1CN(CC(=O)N2CCc3ccc(Cc4ccccc4)cc32)CCN1` [Example 29, 1-(6-Benzyl-2,3-dihydro-indol-1-yl)-2-((R)-3-methyl-piperazin-1-yl)-ethanone hydrochloride salt], the pEC50 is above 5.00 in assay [1] (read-out: EC50, inhibition of cell growth) and 5.34 in assay [1] (read-out: EVSA-T prolif (EC50)). The pIC50 in assay [2] is above 5.00; in assay [2] (Probe A AVPIK(5&6FAM)-amide, read-out: IC50 or PI cIAP1: IC50) it was 5.85. For the molecule `C[C@@H]1CN(CC(=O)N2CC(C)(C)c3cnc(Cc4ccccc4)cc32)[C@@H](C(=O)N(C)C)CN1` [Example 99, (2R,5R)-1-(2-{6-Benzyl-3,3-dimethyl-1H,2H,3H-pyrrolo[3,2-c]pyridin-1-yl}-2-oxoethyl)-N,N,5-trimethylpiperazine-2-carboxamide, hydrochloride salt], the pEC50 in assay [1] (read-out: EVSA-T prolif (EC50)) was 6.74. The pIC50 in assay [2] (setting [4]) was 7.92. Turning to `C[C@@H]1CN(CC(=O)N2CC(C)(C)c3cnc(Cc4ccc(F)cc4F)cc32)[C@@H](CN2CCCC2=O)CN1` [Example 179, 1-{[(2R,5R)-1-(2-{6-[(2,4-Difluorophenyl)methyl]-3,3-dimethyl-1H,2H,3H-pyrrolo[3,2-c]pyridin-1-yl}-2-oxoethyl)-5-methylpiperazin-2-yl]methyl}pyrrolidin-2-one hydrochloride], the pEC50 in assay [1] (read-out: EVSA-T prolif (EC50)) is 8.36. In addition, the inhibition at […] in assay [2] (setting [5]) was determined as 97%. In the case of `C[C@@H]1CN(CC(=O)N2CC(C)(COCc3ccccc3)c3cnc(Cc4ccccc4)cc32)[C@@H](C(=O)N(C)C)CN1` (stereo partly drawn) [Example 104, (2R,5R)-1-(2-{6-Benzyl-3-[(benzyloxy)methyl]-3-methyl-1H,2H,3H-pyrrolo[3,2-c]pyridin-1-yl}-2-oxoethyl)-N,N,5-trimethylpiperazine-2-carboxamide, hydrochloride salt], in assay [1] (read-out: EVSA-T prolif (EC50)), the pEC50 is 6.31. Also, the inhibition at 0.01 µM in assay [2] (3 h, Probe B, @ 0.01 μM, read-out: IC50 or PI cIAP1: PI) turned out to be 71%. `C[C@@H]1CN(CC(=O)N2CC(C)(C)c3cnc(Cc4ccc(F)cc4F)cc32)[C@@H](CN2CCCC2)CN1` [Example 220, 1-{6-[(2,4-Difluorophenyl)methyl]-3,3-dimethyl-1H,2H,3H-pyrrolo[3,2-c]pyridin-1-yl}-2-[(2R,5R)-5-methyl-2-(pyrrolidin-1-ylmethyl)piperazin-1-yl]ethan-1-one dihydrochloride]: in assay [1] (read-out: EVSA-T prolif (EC50)), the pEC50 was 7.31.

Consider `CCCC(F)(F)c1cnc2c(c1)N(C(=O)CN1C[C@@H](C)NC[C@@H]1CN1CCOCC1)CC2(C)C` [Example 238, 1-[6-(1,1-Difluorobutyl)-3,3-dimethyl-1H,2H,3H-pyrrolo[3,2-b]pyridin-1-yl]-2-[(2R,5R)-5-methyl-2-(morpholin-4-ylmethyl)piperazin-1-yl]ethan-1-one hydrochloride], for which the pEC50 in assay [1] (read-out: EVSA-T prolif (EC50)) was 7.17. For the same molecule, in assay [2] (setting [5]), the inhibition at […] came out at 69%.

With `C[C@@H]1CN(CC(=O)N2CC(C)(C)c3cnc(C(C)(F)F)cc32)[C@@H](CN2CCCC2=O)CN1` [Example 184, dihydrochloride], in assay [1] (read-out: EVSA-T prolif (EC50)), the pEC50 was 6.19. Moreover, the pIC50 in assay [2] is above 6.00; in assay [2] (setting [4]), 7.51. `C[C@@H]1CN(CC(=O)N2CC(C)(C)c3ncc(Cc4ccccc4F)cc32)[C@@H](CN2CC[C@@H](F)C2)CN1` [Example 250, 1-{6-[(2-Fluorophenyl)methyl]-3,3-dimethyl-1H,2H,3H-pyrrolo[3,2-b]pyridin-1-yl}-2-[(2R,5R)-2-{[(3R)-3-fluoropyrrolidin-1-yl]methyl}-5-methylpiperazin-1-yl]ethan-1-one dihydrochloride]: the pEC50 in assay [1] (read-out: EVSA-T prolif (EC50)) is 7.80. Also, in assay [2] (setting [3]), the inhibition at […] turned out to be 89%.

As for `C[C@@H]1CN(CC(=O)N2CC(C)(C)c3ncc(Cc4ccc(F)cc4)cc32)[C@@H](CN2CC[C@@H](F)C2)CN1` [Example 241, 1-{6-[(4-Fluorophenyl)methyl]-3,3-dimethyl-1H,2H,3H-pyrrolo[3,2-b]pyridin-1-yl}-2-[(2R,5R)-2-{[(3R)-3-fluoropyrrolidin-1-yl]methyl}-5-methylpiperazin-1-yl]ethan-1-one dihydrochloride], in assay [1] (read-out: EVSA-T prolif (EC50)), the pEC50 was 8.14. Moreover, the inhibition at […] in assay [2] (setting [3]) was 98%.

Take `CCCC(F)(F)c1cnc2c(c1)N(C(=O)CN1C[C@@H](C)NC[C@@H]1CN1CCCC1=O)CC2(C)C` [Example 217, 1-{[(2R,5R)-1-{2-[6-(1,1-Difluorobutyl)-3,3-dimethyl-1H,2H,3H-pyrrolo[3,2-b]pyridin-1-yl]-2-oxoethyl}-5-methylpiperazin-2-yl]methyl}pyrrolidin-2-one hydrochloride]: the pEC50 in assay [1] (read-out: EVSA-T prolif (EC50)) is 7.30.

Turning to `COC[C@H]1CN[C@H](C)CN1CC(=O)N1CC(C)(C)c2cnc(C(OC)c3ccccc3)cc21` (stereo partly drawn) [Example 132, 1-{6-[Methoxy(phenyl)methyl]-3,3-dimethyl-1H,2H,3H-pyrrolo[3,2-c]pyridin-1-yl}-2-[(2R,5R)-2-(methoxymethyl)-5-methylpiperazin-1-yl]ethan-1-one dihydrochloride], the pEC50 in assay [1] (read-out: EVSA-T prolif (EC50)) is 6.18. The same measure, in the same setting: under `C[C@@H]1CN(CC(=O)N2CC(C)(C)c3ncc(C(F)(F)c4ccccc4)cc32)[C@@H](CN2CCCC2=O)CN1` [Example 210, 1-{[(2R,5R)-1-(2-{6-[Difluoro(phenyl)methyl]-3,3-dimethyl-1H,2H,3H-pyrrolo[3,2-b]pyridin-1-yl}-2-oxoethyl)-5-methylpiperazin-2-yl]methyl}pyrrolidin-2-one hydrochloride] stands 7.27; under `C[C@@H]1CN(CC(=O)N2CC(C)(C)c3ccc(Cc4ccccc4)cc32)[C@@H](CO)CN1` [Example 42, 1-(6-Benzyl-3,3-dimethyl-2,3-dihydro-indol-1-yl)-2-((2R,5R)-2-hydroxymethyl-5-methyl-piperazin-1-yl)-ethanone trifluoroacetate salt], 5.59. Same read-out and setting: the figure for `CC(C)CC(F)(F)c1cnc2c(c1)N(C(=O)CN1C[C@@H](C)NC[C@@H]1CN1CCOCC1)CC2(C)C` [Example 235, 1-[6-(1,1-Difluoro-3-methylbutyl)-3,3-dimethyl-1H,2H,3H-pyrrolo[3,2-b]pyridin-1-yl]-2-[(2R,5R)-5-methyl-2-(morpholin-4-ylmethyl)piperazin-1-yl]ethan-1-one] is 7.51; for `COC[C@H]1CN[C@H](C)CN1CC(=O)N1CC(C)(C)c2cnc(CCC(C)C)cc21` [Example 75, 1-[3,3-Dimethyl-6-(3-methyl-butyl)-2,3-dihydro-pyrrolo[3,2-c]pyridin-1-yl]-2-((2R,5R)-2-methoxy-methyl-5-methyl-piperazin-1-yl)-ethanone] it is 6.30.
